In patent US11692167B2, “Chemically defined serum replacements for cell culture” (Montana State University, priority 2021, dated 2023):

Legend:
HFF cells = test: Design of Experiments two-factor interaction on HFF cells (cell numbers/mL); assay type: cell-based, human; conditions: culture for 5 days
Text: Optimization of mixes is achieved using Design of Experiments (DoE) computer-based design and analysis protocols. Experiments are computer designed according to number of variables to test, and serial dilutions of those variables. Results are able to indicate two factor interactions. […] This enables the optimization of many interdependent nutrients using maxima and repeat application. […] Vertical axes reflect cell numbers/mL after culture for 5 days. Horizontal axes correspond to increasing concentration of indicated lipids.

[1] = spectrophotometric assay using phenolphthalein indicator to determine complexation efficiency of lipids with cyclodextrins; assay type: physicochemical; conditions: extrapolated from free phenolphthalein absorbance
Procedure: Solubilized lipids were evaluated by spectrophotometric assay using Phenolphthalein, which is known to occupy the complexing reagents used for five hydrophobic nutrients used in chemically defined mixes. Phenolphthalein is known to be displaced from the reagent when a hydrophobic moiety is complexed, so the concentration of occupied reagents was extrapolated from coloration indicating concentration of free phenolphthalein in solution when a known amount of solubilized nutrient was dosed with a known quantity of Phenolphthalein. […] Phenolphthalein is colored when free in solution at pH 8+. It readily complexes with cyclodextrins of all types and is colorless when complexed. It is preferentially displaced by more hydrophobic molecules, so when added to a known concentration of complexed lipids, the absorbance can determine how much free phenolphthalein is present, and therefore how many free cyclodextrins are present. Since the stoichiometry of mixing is 1:1, the concentration of cyclodextrins that are free to interact with Phenolphthalein logically equals the concentration of free lipid in solution.

Structure (SMILES) | two-factor interaction with PT (palmitate) on cell numbers/mL (HFF cells; FIG. 8A) | two-factor interaction with α linolenic acid (ALA) on cell numbers/mL (HFF cells; FIG. 8B) | free lipid concentration in solution relative to critical micelle concentration (literature level) [1]
CCCCCC/C=C\CCCCCCCC(=O)O [PA, palmitoleic acid] | agonistic relationship | antagonist relationship | –
CCCCCCCC/C=C\CCCCCCCC(=O)O [oleic acid] | – | – | greater than the literature level
